Patent publication US8440830B2, “Tetrahydro-fused pyridines as histone deacetylase inhibitors” (4SC AG, priority 2007, dated 2013)

What follows are compounds tested on A549 NSCLC cells (assay: Cellular cytotoxicity assay (Alamar Blue), A549). Details: Homo sapiens, 72 h, upper end given as ≧100, read-out: IC50 (μM), cytotoxicity towards A549 NSCLC cells.
Type: cell-based
Procedure: The anti-proliferative activity of the histone deacetylase inhibitory compounds as described herein, is evaluated using the following cell lines: HeLa and HeLa-KB (cervical carcinoma), H460 (non small cell lung cancer), A549 (non-small cell lung cancer), MCF7 (breast carcinoma), MCF10A (normal, non tumorigenic breast epithelial), MDA-MB468 (breast carcinoma), MDA-MB435 (breast carcinoma), MDA-MB231 (breast carcinoma), SKBR-3 (breast carcinoma), SKOV-3 (ovarial carcinoma), A-2780 (ovarial carcinoma), RKO (colon carcinoma), HCT-15 (colon carcinoma), HCT-116 (colon carcinoma), PC3 (prostate carcinoma), BPH1 (benign prostate hyperplasia), AsPC1 (pancreatic carcinoma), Ca127 (tongue carcinoma), A-431 (vulva carcinoma), Hec1A (endometrial carcinoma), Saos-2 (osteosarcoma), U87MG (glioblastoma), WM266-4 (melanoma), K562 (chronic myeloid leukemia), EOL1 (acute hypereosinophilic myeloid leukemia), CCRF-CEM and CCRF-CEM VCR1000 (acute lymphoblastic leukemia sensitive and resistant towards Vincristine). For quantification of cellular proliferation/living cells the Alamar Blue (Resazurin) cell viability assay is applied (O'Brien et al. Eur J Biochem 267, 5421-5426, 2000). In this assay Resazurin is reduced to the fluorescent resorufine by cellular dehydrogenase activity, correlating with viable, proliferating cells. The examples are dissolved as 20 mM solutions in dimethylsulfoxide (DMSO) and subsequently diluted in semi-logarithmic steps. Cell lines are seeded at respective density into 96 well flat bottom plates in a volume of 200 μl per well. 24 h after seeding 1 μl each of the compound dilutions are added into each well of the 96 well plate. Each compound dilution is tested as quadruplicates. Wells containing untreated control cells are filled with 200 μl DMEM medium containing 0.5% v:v DMSO. The cells are then incubated with the compounds for 72 h at 37° C. in a humidified atmosphere containing 5% carbon dioxide. To determine the viability of the cells, 20 μl of a Resazurin solution (Sigma; 90 mg/l) are added. After 4 h incubation at 37° C. the fluorescence is measured at an extinction of λ=544 nm and an emission of λ=590 nm. For the calculation of the cell viability the emission value from untreated cells is set as 100% viability and the emission rates of treated cells are set in relation to the values of untreated cells. Viabilities are expressed as % values. The corresponding IC50 values of the compounds for cytotoxic activity are determined from the concentration-effect curves by means of non-linear regression.

| Compound | IC50 |
| --- | --- |
| COc1ccc(NC(=O)N2CCc3nc(C(=O)Nc4cc(N(C)C)ccc4N)sc3C2)cc1 [Example 53, N^2-[2-amino-5-(dimethylamino)phenyl]N^5-(4-methoxyphenyl)-6,7-dihydro[1,3]thiazolo[5,4-c]pyridine-2,5(4H)-dicarboxamide] | ≥ 0.2 µM |
| COc1ccc(NC(=O)N2CCc3nc(C(=O)Nc4cc(-c5cccs5)ccc4N)sc3C2)cc1 [Example 54, N^2-[2-amino-5-(2-thienyl)phenyl]-N^5-(4-methoxyphenyl)-6,7-dihydro[1,3]thiazolo[5,4-c]pyridine-2,5(4H)-dicarboxamide] | ≥ 0.2 µM |
| CN(C)c1ccc(NC(=O)N2CCc3nc(C(=O)Nc4cc(-c5cccs5)ccc4N)sc3C2)cc1 [Example 55, N^2-[2-amino-5-(2-thienyl)phenyl]-N^5-[4-(dimethylamino)phenyl]-6,7-dihydro[1,3]thiazolo[5,4-c]pyridine-2,5(4H)-dicarboxamide] | ≥ 0.2 µM |
| COc1ccc(NC(=O)N2CCc3nc(C(=O)Nc4cc(-c5ccsc5)ccc4N)sc3C2)cc1 [Example 56, N^2-[2-amino-5-(3-thienyl)phenyl]-N^5-(4-methoxyphenyl)-6,7-dihydro[1,3]thiazolo[5,4-c]pyridine-2,5(4H)-dicarboxamide] | ≥ 0.2 µM |
| Nc1ccccc1NC(=O)c1nc2c(s1)CN(C(=O)Nc1cccc3cnccc13)CC2 [Example 62, N^2-(2-aminophenyl)-N^5-isoquinolin-5-yl-6,7-dihydro[1,3]thiazolo[5,4-c]pyridine-2,5(4H)-dicarboxamide] | ≥ 0.2 µM |
| CN(C)c1ccc(NC(=O)C(=O)N2CCc3nc(C(=O)Nc4ccccc4N)sc3C2)cc1 [Example 64, N-(2-aminophenyl)-5-[{[4-(dimethylamino)phenyl]amino}(oxo)acetyl]-4,5,6,7-tetrahydro[1,3]thiazolo[5,4-c]pyridine-2-carboxamide] | ≥ 0.2 µM |
| COc1ccc(NC(=O)C(=O)N2CCc3nc(C(=O)Nc4ccccc4N)sc3C2)cc1 [Example 65, N-(2-aminophenyl)-5-{[(4-methoxyphenyl)amino](oxo)acetyl}-4,5,6,7-tetrahydro[1,3]thiazolo[5,4-c]pyridine-2-carboxamide] | ≥ 0.2 µM |
| COc1ccc(NC(=O)C(=O)N2CCc3nc(C(=O)Nc4ccccc4N)sc3C2)cc1OC [Example 66, N-(2-aminophenyl)-5-{[(3,4-dimethoxyphenyl)amino](oxo)acetyl}-4,5,6,7-tetrahydro[1,3]thiazolo[5,4-c]pyridine-2-carboxamide] | ≥ 0.2 µM |
| Nc1ccccc1NC(=O)c1nc2c(s1)CN(C(=O)C(=O)NC1CCC(c3ccncc3)CC1)CC2 (stereo not drawn) [Example 67, N-(2-aminophenyl)-5-{oxo[(4-pyridin-4-ylcyclohexyl)amino]acetyl}-4,5,6,7-tetrahydro[1,3]thiazolo[5,4-c]pyridine-2-carboxamide] | ≥ 0.2 µM |
| Nc1ccccc1NC(=O)c1nc2c(s1)CN(C(=O)C(=O)Nc1cccc3cnccc13)CC2 [Example 68, N-(2-aminophenyl)-5-[(isoquinolin-5-ylamino)(oxo)acetyl]-4,5,6,7-tetrahydro[1,3]thiazolo[5,4-c]pyridine-2-carboxamide] | ≥ 0.2 µM |
| Nc1ccccc1NC(=O)c1nc2c(s1)CN(C(=O)C(=O)NC1CCC(c3cccnc3)CC1)CC2 (stereo not drawn) [Example 69, N-(2-aminophenyl)-5-{oxo[(4-pyridin-3-ylcyclohexyl)amino]acetyl}-4,5,6,7-tetrahydro[1,3]thiazolo[5,4-c]pyridine-2-carboxamide] | ≥ 0.2 µM |
| COc1ccc(NC(=O)C(=O)N2CCc3nc(C(=O)Nc4ccccc4N)sc3C2)cn1 [Example 70, N-(2-aminophenyl)-5-{[(6-methoxypyridin-3-yl)amino](oxo)acetyl}-4,5,6,7-tetrahydro[1,3]thiazolo[5,4-c]pyridine-2-carboxamide] | ≥ 0.2 µM |
| CN(C)c1ccc(NC(=O)C(=O)N2CCc3nc(C(=O)Nc4ccccc4N)sc3C2)cn1 [Example 71, N-(2-aminophenyl)-5-[{[6-(dimethylamino)pyridin-3-yl]amino}(oxo)acetyl]-4,5,6,7-tetrahydro[1,3]thiazolo[5,4-c]pyridine-2-carboxamide] | ≥ 0.2 µM |
| Nc1ccccc1NC(=O)c1nc2c(s1)CN(C(=O)C(=O)Nc1ccc(OC(F)(F)F)cc1)CC2 [Example 72, N-(2-aminophenyl)-5-(oxo{[4-(trifluoromethoxy)phenyl]amino}acetyl)-4,5,6,7-tetrahydro[1,3]thiazolo[5,4-c]pyridine-2-carboxamide] | ≥ 0.2 µM |
| Nc1ccccc1NC(=O)c1nc2c(s1)CN(C(=O)C(=O)Nc1ccc(N3CCOCC3)nc1)CC2 [Example 73, N-(2-aminophenyl)-5-{[(6-morpholin-4-ylpyridin-3-yl)amino](oxo)acetyl}-4,5,6,7-tetrahydro[1,3]thiazolo[5,4-c]pyridine-2-carboxamide] | ≥ 0.2 µM |
| Nc1ccccc1NC(=O)c1nc2c(s1)CN(C(=O)C(=O)Nc1ccc3c(c1)OCO3)CC2 [Example 74, N-(2-aminophenyl)-5-[(1,3-benzodioxol-5-ylamino)(oxo)acetyl]-4,5,6,7-tetrahydro[1,3]thiazolo[5,4-c]pyridine-2-carboxamide] | ≥ 0.2 µM |
| Cc1ccc(NC(=O)C(=O)N2CCc3nc(C(=O)Nc4ccccc4N)sc3C2)cc1 [Example 75, N-(2-aminophenyl)-5-{[(4-methylphenyl)amino](oxo)acetyl}-4,5,6,7-tetrahydro[1,3]thiazolo[5,4-c]pyridine-2-carboxamide] | ≥ 0.2 µM |
| Cc1ccc(NC(=O)C(=O)N2CCc3nc(C(=O)Nc4ccccc4N)sc3C2)nc1 [Example 76, N-(2-aminophenyl)-5-{[(5-methylpyridin-2-yl)amino](oxo)acetyl}-4,5,6,7-tetrahydro[1,3]thiazolo[5,4-c]pyridine-2-carboxamide] | ≥ 0.2 µM |
| Nc1ccccc1NC(=O)c1nc2c(s1)CN(C(=O)C(=O)Nc1cnc3ccccc3c1)CC2 [Example 77, N-(2-aminophenyl)-5-[oxo(quinolin-3-ylamino)acetyl]-4,5,6,7-tetrahydro-[1,3]thiazolo[5,4-c]pyridine-2-carboxamide] | ≥ 0.2 µM |
| COc1ccc(NC(=O)C(=O)N2CCc3nc(C(=O)Nc4cc(OC)ccc4N)sc3C2)cc1 [Example 78, N-(2-amino-5-methoxyphenyl)-5-{[(4-methoxyphenyl)amino](oxo)acetyl}-4,5,6,7-tetrahydro[1,3]thiazolo[5,4-c]pyridine-2-carboxamide] | ≥ 0.2 µM |
| CCCCNC(=O)C(=O)N1CCc2nc(C(=O)Nc3ccccc3N)sc2C1 [Example 79, N-(2-aminophenyl)-5-[(butylamino)(oxo)acetyl]-4,5,6,7-tetrahydro[1,3]thiazolo[5,4-c]pyridine-2-carboxamide] | ≥ 0.2 µM |
| COc1ccc(NC(=O)C(=O)N2CCc3nc(C(=O)Nc4cc(C(C)C)ccc4N)sc3C2)cc1OC [Example 80, N-(2-amino-5-isopropylphenyl)-5-{[(3,4-dimethoxyphenyl)amino](oxo)acetyl}-4,5,6,7-tetrahydro[1,3]thiazolo[5,4-c]pyridine-2-carboxamide] | ≥ 0.2 µM |
| COc1ccc(NC(=O)C(=O)N2CCc3nc(C(=O)Nc4cc(C(C)C)ccc4N)sc3C2)cc1 [Example 81, N-(2-amino-5-isopropylphenyl)-5-{[(4-methoxyphenyl)amino](oxo)acetyl}-4,5,6,7-tetrahydro[1,3]thiazolo[5,4-c]pyridine-2-carboxamide] | ≥ 0.2 µM |
| COc1ccc(N)c(NC(=O)c2nc3c(s2)CN(C(=O)C(=O)Nc2ccc(OC)c(OC)c2)CC3)c1 [Example 82, N-(2-amino-5-methoxyphenyl)-5-{[(3,4-dimethoxyphenyl)amino](oxo)acetyl}-4,5,6,7-tetrahydro[1,3]thiazolo[5,4-c]pyridine-2-carboxamide] | ≥ 0.2 µM |
| CCCCNC(=O)C(=O)N1CCc2nc(C(=O)Nc3cc(OC)ccc3N)sc2C1 [Example 83, N-(2-amino-5-methoxyphenyl)-5-[(butylamino)(oxo)acetyl]-4,5,6,7-tetrahydro[1,3]thiazolo[5,4-c]pyridine-2-carboxamide] | ≥ 0.2 µM |
| CCCCNC(=O)C(=O)N1CCc2nc(C(=O)Nc3cc(C(C)C)ccc3N)sc2C1 [Example 84, N-(2-amino-5-isopropylphenyl)-5-[(butylamino)(oxo)acetyl]-4,5,6,7-tetrahydro[1,3]thiazolo[5,4-c]pyridine-2-carboxamide] | ≥ 0.2 µM |
| Nc1ccccc1NC(=O)c1nc2c(s1)CN(C(=O)C(=O)NCc1ccccc1)CC2 [Example 85, N-(2-aminophenyl)-5-[(benzylamino)(oxo)acetyl]-4,5,6,7-tetrahydro[1,3]thiazolo[5,4-c]pyridine-2-carboxamide] | ≥ 0.2 µM |
